# Measured values as given in patent publication US20260097047A1, “Small molecule inhibitors of the ribosome biogenesis factor NVL2” (Board of Regents, The University of Texas System, priority 2023, published 2026).
# Where two headings read alike, the source gives them in different places.
# What was measured:
# p53 and p21 = p53 and p21 protein levels in HCT116 cells; assay type: cell-based, human
# Description: Inhibition of 60S ribosome biogenesis is known to induce the stability and upregulation of p53, which could serve as a potential pharmacodynamics marker for MM017 in HCT116 cells. […] We used PRISM (Broad Institute) to evaluate the selectivity of MM017 across 902 cancer cell lines and then correlated this selectivity to 1,215 clinical and pre-clinical compounds in the PRISM database. […] These observations indicate that oxaliplatin and carmofur, like MM017, target ribosome biogenesis.
# HCT116 cells = test: Cell viability assay (CellTiter-Glo, 72 hours) in HCT116 human colorectal cancer cells; assay type: cell-based
# Summary of the method: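 Ten-point IC50 came from an asymmetric five-parameter fit of luminescence corrected to vehicle wells. ATP content was measured by CellTiter-Glo 72 h after dosing at 37 °C. Cells were seeded at 2,000/well the day before, with 0.5% DMSO in all wells.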
# [1] = Table 8, analogs of scaffold drawing 43 defined by R^2, R^3, X/Y, W, read-out: Activity (IC50 class, cell viability assay)
# [2] = cell viability assay, Table 10 analogs of scaffold drawing 45 defined by R2, R3, X/Y, W, read-out: Activity
# [3] = Table 7, cell viability assay, CellTiter-Glo, 72 hours, scaffold drawing 42 with R^2, R^3, X/Y, Z, read-out: Activity
SMILES,IC50 (HCT116 cells; [1]),also measured
"Cc1cnc(CNC(=O)c2c(=O)c3ccc(N4CCCN(C)CC4)nc3n3c2sc2ccccc23)cn1 [CX-5461, reference compound]",,p53 levels in parental HCT116 cells (p53 and p21): dose-dependent increase in the levels of p53
CC#CCN1C(=O)c2ccccc2Sc2cc(NC(=O)OCCOC)cnc21 [—CH2CCMe; O(CH2)2OMe; CH/CH; N],< 500 nM,
CC#CCN1C(=O)c2ccccc2Sc2cc(NC(=O)C3CCC3)ccc21 [—CH2CCMe; cBu; CH/CH; CH],< 500 nM,
CC#CCN1C(=O)c2ccccc2Sc2cc(NC(=O)C3CCC3)cnc21 [—CH2CCMe; cBu; CH/CH; N],< 500 nM,
CC#CCN1C(=O)c2ccccc2Sc2cc(NC(=O)C3CCCCC3)cnc21 [—CH2CCMe; cHex; CH/CH; N],< 500 nM,
CC#CCN1C(=O)c2ccccc2Sc2cc(NC(=O)C3CCCC3)cnc21 [—CH2CCMe; cPent; CH/CH; N],< 500 nM,
CC#CCN1C(=O)c2ccccc2Sc2cc(NC(=O)C3CC3)cnc21 [—CH2CCMe; cPr; CH/CH; N],< 500 nM,
CC#CCN1C(=O)c2ccc(Cl)cc2Sc2cc(NC(=O)[C@H]3C[C@@H](OC)C3)ccc21 [—CH2CCMe; cis-3-MeOcBu; CCI/CH; CH],< 500 nM,
CC#CCN1C(=O)c2cc(F)ccc2Sc2cc(NC(=O)[C@H]3C[C@@H](OC)C3)ccc21 [—CH2CCMe; cis-3-MeOcBu; CH/CF; CH],< 500 nM,
CC#CCN1C(=O)c2cc(F)ccc2Sc2cc(NC(=O)[C@H]3C[C@@H](OC)C3)cnc21 [—CH2CCMe; cis-3-MeOcBu; CH/CF; N],< 500 nM,
CC#CCN1C(=O)c2ccccc2Sc2cc(NC(=O)C3CC(OC)C3)ccc21 (stereo not drawn) [—CH2CCMe; cis-3-MeOcBu; CH/CH; CH],< 500 nM,IC50 (HCT116 cells; [2]): < 500 nM
CC#CCN1C(=O)c2ccc(Cl)cc2Sc2cc(NC(=O)[C@H]3C[C@@H](O)C3)ccc21 [—CH2CCMe; cis-3-OH-cBu; CCI/CH; CH],< 500 nM,
CC#CCN1C(=O)c2ccc(Cl)cc2Sc2cc(NC(=O)[C@H]3C[C@@H](O)C3)cnc21 [—CH2CCMe; cis-3-OH-cBu; CCI/CH; N],< 500 nM,
CC#CCN1C(=O)c2ccccc2Sc2cc(NC(=O)[C@H]3C[C@@H](O)C3)ccc21 [—CH2CCMe; cis-3-OH-cBu; CH/CH; CH],< 500 nM,
CC#CCN1C(=O)c2ccccc2Sc2cc(NC(=O)c3ccoc3)ccc21 [—CH2CCMe; furan-3-yl; CH/CH; CH],< 500 nM,
CC#CCN1C(=O)c2ccccc2Sc2cc(NC(=O)c3ccoc3)cnc21 [—CH2CCMe; furan-3-yl; CH/CH; N],< 500 nM,
CC#CCN1C(=O)c2ccc(Cl)cc2Sc2cc(NC(=O)C3COC3)ccc21 [—CH2CCMe; oxetan-3-yl; CCl/CH; CH],< 500 nM,
CC#CCN1C(=O)c2cc(F)ccc2Sc2cc(NC(=O)C3COC3)ccc21 [—CH2CCMe; oxetan-3-yl; CH/CF; CH],< 500 nM,
CC#CCN1C(=O)c2ccccc2Sc2cc(NC(=O)C3COC3)ccc21 [—CH2CCMe; oxetan-3-yl; CH/CH; CH],< 500 nM,
CC#CCN1C(=O)c2ccccc2Sc2cc(NC(=O)C3CCNC3)ccc21 (centres unmarked) [—CH2CCMe; pyrrolidin-3-yl; CH/CH; CH],1000 to 5000 nM,
CC#CCN1C(=O)c2ccc(F)cc2Sc2cc(NC(=O)C3CCCO3)cnc21 (centres unmarked) [—CH2CCMe; tetrahydrofuran-2-yl; CF/CH; N],< 500 nM,
CC#CCN1C(=O)c2cc(F)ccc2Sc2cc(NC(=O)C3CCCO3)cnc21 (centres unmarked) [—CH2CCMe; tetrahydrofuran-2-yl; CH/CF; N],< 500 nM,
CC#CCN1C(=O)c2ccccc2Sc2cc(NC(=O)C3CCCO3)cnc21 (centres unmarked) [—CH2CCMe; tetrahydrofuran-2-yl; CH/CH; N],< 500 nM,
CC#CCN1C(=O)c2cc(F)ccc2Sc2cc(NC(=O)C3CCOC3)cnc21 (centres unmarked) [—CH2CCMe; tetrahydrofuran-3-yl; CH/CF; N],< 500 nM,

SMILES,IC50 (HCT116 cells; [1]),also measured
CC#CCN1C(=O)c2ccccc2Sc2cc(NC(=O)C3CCOC3)cnc21 (centres unmarked) [—CH2CCMe; tetrahydrofuran-3-yl; CH/CH; N],< 500 nM,
CC#CCN1C(=O)c2cc(F)ccc2Sc2cc(NC(=O)C3CC3COC)ccc21 (stereo not drawn) [—CH2CCMe; trans-2-MeOCH2-cPr; CH/CF; CH],< 500 nM,
CC#CCN1C(=O)c2ccc(Cl)cc2Sc2cc(NC(=O)[C@H]3C[C@H](OC)C3)ccc21 [—CH2CCMe; trans-3-MeOcBu; CCl/CH; CH],< 500 nM,IC50 (HCT116 cells; [2]): < 500 nM
CC#CCN1C(=O)c2ccc(F)cc2Sc2cc(NC(=O)[C@H]3C[C@H](OC)C3)cnc21 [—CH2CCMe; trans-3-MeOcBu; CF/CH; N],< 500 nM,IC50 (HCT116 cells; [2]): < 500 nM
CC#CCN1C(=O)c2cc(F)ccc2Sc2cc(NC(=O)[C@H]3C[C@H](OC)C3)cnc21 [—CH2CCMe; trans-3-MeOcBu; CH/CF; N],< 500 nM,
CC#CCN1C(=O)c2ccc(Cl)cc2Sc2cc(NC(=O)[C@H]3C[C@H](O)C3)cnc21 [—CH2CCMe; trans-3-OH-cBu; CCl/CH; N],< 500 nM,
CC#CCN1C(=O)c2cc(F)ccc2Sc2cc(NC(=O)[C@H]3C[C@H](O)C3)ccc21 [—CH2CCMe; trans-3-OH-cBu; CH/CF; CH],< 500 nM,
CC#CCN1C(=O)c2ccccc2Sc2cc(NC(=O)[C@H]3C[C@H](O)C3)ccc21 [—CH2CCMe; trans-3-OH-cBu; CH/CH; CH],< 500 nM,
COCC1CC(C(=O)Nc2cnc3c(c2)Sc2ccccc2C(=O)N3CC#CC2CC2)C1 (centres unmarked) [—CH2CC^cPr; 3-MeOCH2-cBu; CH/CH; N],< 500 nM,
O=C(CCCO)Nc1cnc2c(c1)Sc1ccccc1C(=O)N2CC#CC1CC1 [—CH2CC^cPr; (CH2)3OH; CH/CH; N],< 500 nM,
COCCCC(=O)Nc1cnc2c(c1)Sc1ccccc1C(=O)N2CC#CC1CC1 [—CH2CC^cPr; (CH2)3OMe; CH/CH; N],< 500 nM,
O=C(CC1COC1)Nc1ccc2c(c1)Sc1ccc(F)cc1C(=O)N2CC#CC1CC1 [—CH2CC^cPr; (oxetan-3-yl)CH2; CH/CF; CH],< 500 nM,
O=C(CC1COC1)Nc1ccc2c(c1)Sc1ccccc1C(=O)N2CC#CC1CC1 [—CH2CC^cPr; (oxetan-3-yl)CH2; CH/CH; CH],< 500 nM,
O=C(CC1COC1)Nc1cnc2c(c1)Sc1ccccc1C(=O)N2CC#CC1CC1 [—CH2CC^cPr; (oxetan-3-yl)CH2; CH/CH; N],< 500 nM,
COCC=CC(=O)Nc1cnc2c(c1)Sc1ccccc1C(=O)N2CC#CC1CC1 [—CH2CC^cPr; CH═CHCH2OMe; CH/CH; N],< 500 nM,
COCCC(C)C(=O)Nc1cnc2c(c1)Sc1ccccc1C(=O)N2CC#CC1CC1 (centres unmarked) [—CH2CC^cPr; MeO(CH2)2CHMe-; CH/CH; N],< 500 nM,
CO[C@H]1C[C@@H](C(=O)Nc2cnc3c(c2)Sc2ccccc2C(=O)N3CC#CC2CC2)C1 [—CH2CC^cPr; cis-3-MeOcBu; CH/CH; N],< 500 nM,
O=C1c2ccccc2Sc2cc(NC(=O)[C@H]3C[C@@H](O)C3)cnc2N1CC#CC1CC1 [—CH2CC^cPr; cis-3-OH-cBu; CH/CH; N],< 500 nM,
CO[C@H]1C[C@H](C(=O)Nc2cnc3c(c2)Sc2ccccc2C(=O)N3CC#CC2CC2)C1 [—CH2CC^cPr; trans-3-MeOcBu; CH/CH; N],< 500 nM,
COCC1CC(C(=O)Nc2cnc3c(c2)Sc2ccccc2C(=O)N3CC#CC2CC2)C1 (centres unmarked) [—CH2CCcPr; 3-MeOCH2-cBu; CH/CH; N],,IC50 (HCT116 cells; [2]): < 500 nM
CO[C@H]1C[C@H](C(=O)Nc2cnc3c(c2)Sc2ccccc2C(=O)N3CC#CC2CC2)C1 [—CH2CCcPr; trans-3-MeOcBu; CH/CH; N],,IC50 (HCT116 cells; [2]): < 500 nM
C=CCN1C(=O)c2ccccc2Sc2cc(NC(=O)c3ccoc3)ccc21 [—CH2CH═CH2; furan-3-yl; CH/CH; S],,IC50 (HCT116 cells; [3]): < 500 nM
CCCC=CCN1C(=O)c2ccccc2Sc2cc(NC(=O)c3ccoc3)ccc21 [—CH2CH═CHPr; furan-3-yl; CH/CH; S],,IC50 (HCT116 cells; [3]): < 500 nM
